No end group written: not given here.
Columns and labels:
C57BL/6 mice = experiment: Histological analysis of fibrosis (Masson's trichrome, Aperio) of hearts 14 days post-AMI; assay type: in vivo, mouse
Experimental: Mice were euthanized by isoflurane and cervical dislocation at day 14, fixed in fresh 4% paraformaldehyde for 24 hours, paraffin embedded, processed, and stained with standard hematoxylin and eosin (H&E) and Masson's trichrome (MT). Starting at the ligation with fully faced tissue, 14-15 levels were cut on each block at 50 μm (one slide for H&E, one for MT, and 3 unstained; 50 μm skipped and then repeated). […] The area of fibrosis was analyzed in 3-4 blindly chosen hearts, each heart at 14-15 levels (point of ligation to apex), 3 sections at each level. Analysis of collagen was performed blinded to treatment on these 42-45 sections per heart. Slides were scanned using an Aperio Scanscope (Aperio Technologies, Vista, Calif.) and analyzed using Aperio Imagescope. The Algorithm Positive Pixel Count v9 was used to measure the Masson's trichrome staining of collagen (representing both fibrosis and collagen in extracellular matrix), hue value (0.66) and hue width (0.1) were used analyzed the tissue outlined using the pen tool. Each section was analyzed and exported. The N positive/N total value (representing the % collagen of the entire section) was used to determine a weighted average for each slide.
Hearts were obtained from AMI mice and histologically analyzed for fibrosis in Masson's trichrome stained sections in a systemic manner (FIG. 2A).

MK2 = experiment: Immunoblot analysis of MK2 activity (HNRNPA0, total MK2, p-MK2) in HL1 cells; assay type: cell-based, mouse
Experimental: Cells were rinsed in PMS and grown in DMEM (cat. #11966-025, Gibco) for 2 hours prior to initiating hypoxia (simulated ischemia). Hypoxia was induced by placing cells in a hypoxia chamber ([…] 150i, Thermo Scientific) in a mixture of 5% CO2/95% N2 to attain a 1% oxygen concentration, according to the manufacturer's instruction. […] The MMI-0100 peptide was added to the cells at the start of the ischemia time. Cells were cultured in 12 well plates. At the time of performing the experiments, all cultures were approximately 70-90% confluent. Three different time points were adopted for each of the three cell lines according to the severity of cell death under hypoxia determined by LDH release: for H9C2 cell line: 8 hr; 16 hr; 24 hr; for HL-1 cell line: 4 hr; 8 hr; 12 hr; for cardiac fibroblast cell line: 16 hr; 32 hr; 48 hr.
The left over cell lysates from the Caspase activity assay were used for the Western blots. […] After blocking with recommended blocking reagents for 1 h at the room temperature, the membranes were incubated overnight at 4° C. with primary antibodies in TBS-T, and then incubated with secondary antibodies conjugated with HRP in TBS-T. HNRNPA0, MAPK2, and phospho-MAPK2 proteins were detected using anti-HNRNPA0 (cat. #HPA036569, 1:1000, Sigma-Aldrich), anti-MAPKAPK2 (cat. #SAB4300553, Sigma-Aldrich), and anti-phospho-MAPKAPK2 (cat. #SAB4300241, 1:1000, Sigma-Aldrich). […]

## YARAAARQARAKALARQLGVAA [MMI-0100]
C57BL/6 mice; AMI mice treated with MMI-0100, AMI alone generally all fibrotic
  histology at the site of infarction (myocyte sparing within scar): islands of viable myocytes
C57BL/6 mice; AMI mice treated with MMI-0100 vs AMI
  fibrosis distant to the site of ischemia (histological sections): not found to the same extent
C57BL/6 mice; AMI mice, 50 μg/kg/day from 30 minutes post-AMI, day 14
  less fibrosis than untreated AMI mice: 50%
C57BL/6 mice; AMI mice, 50 μg/kg/day from 30 minutes post-AMI, day 14, untreated AMI ~21%
  fibrosis, area staining blue (Masson's trichrome collagen): ~11%
MK2; 100 μM, 4 and 8 hours after induction by hypoxia
  HNRNPA0 protein expression: inhibited
MK2; 20 or 100 μM, 1% hypoxia
  total MK2 and p-MK2 protein levels: not changed
